Source: patent publication US20220282304A1, “SAME-SAMPLE ANTIBIOTIC SUSCEPTIBILITY TEST AND RELATED COMPOSITIONS, METHODS AND SYSTEMS” (CALIFORNIA INSTITUTE OF TECHNOLOGY, priority 2021, published 2022)

System: Escherichia coli K12
Assay: Digital same-sample filtration AST at four cell densities (Example 7)
Type: cell-based
Conditions: for treated condition EINAPV (fraction extracellular): untreated EINAPV 0; for Both (number of wells) / Empty (number of wells) / Extracellular only (number of wells) / Intracellular only (number of wells): 60 minutes 37° C., qPCR
Experimental: The inoculum was small enough that no detectable difference in the sample's optical density at 600 mm (OD600) was detectable by a spectrophotometer with a sensitivity of 0.01 absorbance units. After an incubation at 37° C., the media became turbid with an OD600 of 0.22 absorbance units after 2.25 hours of incubation.
In this experiment, the number and volume of sample partitions was restricted, for logistical reasons, to 96 partitions 10 μL in volume, specifically the wells of a 96-well plate. A goal was chosen of having a >98% chance of ending up with at least 48 empty partitions. When all partitions are the same volume, the following formula relates the expected number of empty partitions, the partition volume, and the density of cells.
N is the total number of partitions, n is the number of empty partitions, V is the partition volume, D is the density of cells, and t is a threshold probability chosen by the practitioner. Thus, in order to achieve digital sample partitioning with the available 96-well plate, each 10 μL sample of the specimen practically contains between 0.02 and 2.5 cells on average. In this experiment, densities of 0, 0.5, 1, and 2 cells per sample were targeted. Due to systematic bias in the conversion of OD600 to cell density, the actual densities achieved were closer to 0, 0.09375, 0.1875, and 0.375 cells per sample. The specimen itself was diluted to a density of 37.5 CFU/mL (0.0375 cells/μL), 18.75 CFU/mL, and 9.375 CFU/mL to achieve the target sample densities. For the 0 cell samples, the specimen comprised sterile media.
To begin the AST protocol, the 4 contrived clinical specimen dilutions were physically split into the 24 partitions each by transferring 10 μL of the sample, in 24 separate transfers (actually 3 transfers with a multichannel pipette of each dilution), to wells of a 96-well microtiter plate. Each well contained 15 μL of Mueller-Hinton Broth (MHB) growth media. Half of the wells (48) contained 0 μg/mL of dissolved ETP antibiotic and served as reference condition antibiotic exposures. The other half of the wells contained 1.67 μg/mL of ETP (for a final concentration of 1.0 μg/mL) and served as 48 treated condition antibiotic exposures. Thus, in total there were 8 groups of 12 replicate wells: a treated and an untreated group of wells for each of the four specimen dilutions. In actuality, however, due to operator error, 4 treated 0 cell conditions and 4 untreated 0 cell conditions were converted into the corresponding 0.1875 cell conditions.
The 96 antibiotic exposures were incubated at 37° C. for 60 minutes.
The entire volume of each antibiotic exposure was transferred to a Millipore® 96-well sterile polystyrene MultiScreenHTS® filter plate (Millipore-Sigma MSGVS2210). Each well of the filter plate contained a hydrophilic polyvinylidene fluoride (PVDF) filter membrane with a 0.22 μm pore size. A 96-well polypropylene microtiter plate was affixed to the bottom of the filter plate. At approximately 78 minutes after the start of the exposure, the antibiotic exposures were centrifuged at 2200 relative centrifugal force to speed the passage of the antibiotic exposure through the filter and into 96-well microtiter plate. The collected fluid was called the “filtrate.” It is expected that the filtrate will contain all or most of the extracellular nucleic acids present in the antibiotic exposure, but none of the intracellular nucleic acids in the antibiotic exposure.
As soon as possible (e.g. 0-10 minutes) after the centrifugation of the filter plate, […] of fresh MHB media was spun through the filters after the first centrifugation (above) to wash away residual extracellular nucleic acids present in the small amount (about 3 μL) of fluid wetting the filters. This wash fluid is not collected with the filtrates.
The filtrates were frozen at −80° C. to prevent hypothetical rRNA degradation. Lucigen DNA Extraction Buffer was not used to “extract” the filtrate DNA. […]

[1] = Treated 1.0 μg ETP/mL, batch culture dilution 0 cells, 8 partitions
[2] = Treated 1.0 μg ETP/mL, batch culture dilution 0.09375 cells, 12 partitions
[3] = Treated 1.0 μg ETP/mL, batch culture dilution 0.1875 cells, 16 partitions
[4] = Treated 1.0 μg ETP/mL, batch culture dilution 0.375 cells, 12 partitions
[5] = Treated 1.0 μg ETP/mL, batch culture dilution 0 cells
[6] = Treated 1.0 μg ETP/mL, batch culture dilution 0.09375 cells
[7] = Treated 1.0 μg ETP/mL, batch culture dilution 0.1875 cells
[8] = Treated 1.0 μg ETP/mL, batch culture dilution 0.375 cells

C[C@@H](O)[C@H]1C(=O)N2C(C(=O)O)=C(S[C@@H]3CN[C@H](C(=O)Nc4cccc(C(=O)O)c4)C3)[C@H](C)[C@H]12 [ETP, ertapenem]
treated condition EINAPV (fraction extracellular) (1.0 μg/mL ETP, non-zero dilution 0.09375 cells): 1
treated condition EINAPV (fraction extracellular) (1.0 μg/mL ETP, non-zero dilution 0.1875 cells): 1
treated condition EINAPV (fraction extracellular) (1.0 μg/mL ETP, non-zero dilution 0.375 cells): 1
susceptibility call (measured TRPQ higher than APTV) (1.0 μg/mL ETP, one pooled treated vs one pooled reference condition): susceptible
susceptibility call (binomial exact test) (1.0 μg/mL ETP, significance threshold 0.001): susceptible
Both (number of wells) [1]: 0
Empty (number of wells) [1]: 8
Extracellular only (number of wells) [1]: 0
Intracellular only (number of wells) [1]: 0
Both (number of wells) [2]: 0
Empty (number of wells) [2]: 10
Extracellular only (number of wells) [2]: 2
Intracellular only (number of wells) [2]: 0
Both (number of wells) [3]: 0
Empty (number of wells) [3]: 13
Extracellular only (number of wells) [3]: 3
Intracellular only (number of wells) [3]: 0
Both (number of wells) [4]: 0
Empty (number of wells) [4]: 2
Extracellular only (number of wells) [4]: 10
Intracellular only (number of wells) [4]: 0
Intact (expected number of cells) [5]: 0
Killed (expected number of cells) [5]: 0
Intact (expected number of cells) [6]: 0
Killed (expected number of cells) [6]: 2.14
Intact (expected number of cells) [7]: 0
Killed (expected number of cells) [7]: 3.32
Intact (expected number of cells) [8]: 0
Killed (expected number of cells) [8]: 15.69
estimated cells lysed, all treated samples pooled (Treated 1.0 μg ETP/mL, sum over dilutions, rounded to 21 lysis events): 21.25
